Measurements: patent US20210268030A1, “FIBROADIPOGENIC PROGENITOR-DERIVED EXOSOMES FOR REGENERATION OF DYSTROPHIC MUSCLES” (EXOFIX S.R.L., priority 2018, published 2021)

System: CD63
Assay: In situ immunofluorescence for CD63 on muscle sections
Assay type: in vivo, mdx mice
Method: Animals were used at the specified age and treated for the indicated periods with daily intra peritoneal injections of Trichostatin A, TSA (0.6 mg/kg/day; #T8552, Sigma), dissolved in phospate-saline solution or in phospate-saline alone as vehicle control (CTR). Muscle injury was performed by intramuscular injection in Tibliais Anterior (TA) of Cardiotoxin—CTX− (10 μM, 10 mg/mL) (#L8102, Lotaxan Valence, France, http://www.latoxan.com), 3 days before mice sacrifice.
For immunofluorescence analysis, cryo-sections and cells were fixed in 4% PFA for 10 min and permeabilized with 100% cold acetone (#32201, Sigma) for 6 min at −20° C. or 100% cold Methanol (#32213, Sigma) for 6 min at −20° or with 0.25% Triton for 15 min at RT. Muscle sections were blocked for 1 h with a solution containing 4% BSA (#A7030, Sigma) in PBS. […] Sections were incubated with DAPI in PBS for 5 minutes for nuclear staining, washed in PBS, and mounted with glycerol 3:1 in PBS. […]

## CC(/C=C/C(=O)NO)=C\[C@@H](C)C(=O)c1ccc(N(C)C)cc1 [TSA, Trichostatin A]
1 year-old mdx mice
  CD63 signal in the interstitium of muscles: could not increase
Mdx young mice (1.5-month), compared to young mdx CTR
  CD63-positive interstitial signal: significant increase
